pIC50: −log10 of the molar value. Read-outs that look alike come from different tables or passages of the source.
Experiments:
NCI-H358 cells = experiment: Cell proliferation activity of NCI-H358 by CellTiter-Glo reagent; format: cell-based
Protocol: NCI-H358 cells in exponential growth phase were digested with trypsin-EDTA, plated in a 96-well plate with 2000-3000 cells per well, and incubated overnight at 37° C. with 5% CO2. […] After the incubation, CellTiter-Glo test reagent with an equal volume was added into each well and the obtained 96-well plate was incubated after shaking. The chemiluminescence values were determined by microplate reader, and the IC50 values of the test compounds inhibiting the proliferation of NCI-H358 cells were fitted and calculated by GraphPad Prism software.
The test method of inhibitory activity was the same as that in Test 3 in “Biological Tests” part.

[1] = Preliminary safety test, 5-day escalating oral dosing in Balb/c mice; format: in vivo
Protocol: Test samples: Compound 3-2, Compound 3-6, Compound 3-12M, Compound 3-20, and Compound 4-8.
Animal species and number: Balb/c; 6 animals per group (half male and half female).
Administration mode: oral administration by gavage.
Animal grouping and administration dose: vehicle blank group, Compound 3-2 group (200 mg/kg, 400 mg/kg, 800 mg/kg), Compound 3-6 group (200 mg/kg, 400 mg/kg, 800 mg/kg), Compound 3-12M group (200 mg/kg, 400 mg/kg, 800 mg/kg), Compound 3-20 group (200 mg/kg, 400 mg/kg, 800 mg/kg), Compound 4-8 group (200 mg/kg, 400 mg/kg, 800 mg/kg).
Administration frequency: once a day for 5 days.
General clinical observations were performed 2 times a day (once in the morning and once in the afternoon) during the test period. Death, morbidity, respiration, secretions, feces, and diet, drinking situation and so on were observed, and the changes in body weight of the mice during the administration period were recorded. The animals in each group were euthanized after the administration, and all animals were dissected and subjected to gross observation.

[2] = tested on: MIA PaCa-2-derived xenograft tumor; experiment: Pharmacodynamics test of MIA PaCa-2-derived xenograft tumor model in nude mice (test 6); format: in vivo
Protocol: Animal species and number: Balb/c Nude; 6 animals per group.
Test samples: Compound 3-2, Compound 3-6, Compound 3-20, Compound 3-12M.
Test groups: blank solvent control group; Compound 3-2 (10 mg/kg, QD×15 days), Compound 3-6 (10 mg/kg, QD×15 days), Compound 3-20 (10 mg/kg, QD×15 days), Compound 3-12M (10 mg/kg, QD×15 days).
(§1) Animal model establishment: MIA paca-2 tumor cells in logarithmic growth phase were cultured in vitro and collected, and inoculated subcutaneously into the right back of nude mice at a quantity of 5×10^6 cells/each. When the tumor volume reached 150-300 mm^3, the tumor-bearing nude mice were randomly grouped. Subsequently, the animals in each group were administered, and the day of the first administration was defined as day 1 of the test.
(§2) Administration route and frequency: oral administration by gavage; once a day.
(§3) General state observation: observation time and frequency: once a day; observation indexes or contents: including but not limited to administration location, appearance and signs, general behavioral activities, mental status, death and other abnormal performance of the animals. The animals were euthanized at the end of the test.
Tumor volume calculation: V=½×long diameter×short diameter^2 (mm^3). Tumor growth inhibition rate TGI (%) is used to evaluate the tumor inhibition efficacy of the compounds. TGI (%)=[1−(mean tumor volume in treatment group at the end of administration−mean tumor volume in treatment group at the beginning of administration)/(mean tumor volume in control group at the end of administration−mean tumor volume in control group at the beginning of administration)]×100%.

KRAS G12C = KRAS G12C (Homo sapiens, UniProt P01116, G12C); experiment: Effect on KRAS(G12C) enzyme activity (KRAS G12C/c-Raf binding, Eu/d2 energy transfer); format: biochemical
Protocol: Compound stock solution was taken, and the test compound was subjected to gradient elution in DMSO. The above diluted compound was added into a quantitative volume of enzyme reaction buffer and subjected to oscillation on a microplate oscillator for 20 min.
4 μL of enzyme was transferred to a 384-well reaction plate. 1 μL of the test compound was added into the 384-well reaction plate. The plate was sealed with sealing film, and the reaction plate with the compound was centrifuged at 1000 rpm for 1 min and incubated for 60 min. 5 μL of a mixture of substrate and antibody was transferred to the 384-well reaction plate. The plate was sealed with sealing film, then centrifuged at 1000 rpm for 1 min and incubated for 120 min at room temperature.
Ratiopositive control: average value of the ratios of 10 positive control wells; Rationegative control: average value of the ratios of 10 negative control wells.

[3] = tested on: NCI-H358-derived xenograft tumor; experiment: Pharmacodynamics study of H358-derived xenograft tumor model (test 9); format: in vivo, nude mice; settings: 3-12M 20 and 100 mg/kg, ARS1620 100 mg/kg, i.g., QD×28 days
Protocol: Animal species and number: Balb/c Nude; 10 animals per group.
Test samples: Compound ARS1620 (the representative inhibitor targeting KRAS G12C tumor
target, acquired by purchase) and Compound 3-12M.
Test groups: blank solvent control group;
Compound ARS1620 (100 mg/kg, i.g., QD×28 days);
Compound 3-12M (20 mg/kg, i.g., QD×28 days);
Compound 3-12M (100 mg/kg, i.g., QD×28 days).
as §1, with “NCI-H358” for “Animal model establishment: MIA paca-2”, “150˜300” for “150-300”
as §2, §3
Tumor volume calculation: V=½×long diameter×short diameter^2 (mm^3).

[4] = biological target: T1, human-derived MDR1 (MDR1 coding P-gp) transporter protein (Homo sapiens, UniProt P08183); experiment: Transport effect of transporter MDR1 (vesicle uptake, P-gp substrate assessment); format: in vitro ADME; settings: vesicles expressing human-derived MDR1, 37° C.
T1 construct: expressed in transfected cells; host or cells: membrane vesicles expressing human MDR1
Protocol: For this test, fluorescein and N-methylquinidine were used as the probe substrates in positive control group. ATP-containing test sample or positive control samples were prepared and pre-incubated with MDR1 vesicles at 37° C. After the pre-incubation, the two kinds of samples were mixed and co-incubated at 37° C. The samples were then transferred to a 96-well filter plate, and washed by suction filtration. The vesicles on the filter plate were lysed by using 80% of methanol, and then centrifuged to collect the filtrate. The filtrate was added with pre-cooled methanol containing internal standard. After the centrifugation, the obtained supernatant was taken and the test sample or positive control samples were detected.

[5] = tested on: Chinese hamster lung fibroblasts (CHL cells); settings: from N Engl J Med 2020;383:1207-1217 supporting information; cited from earlier work
[6] = biological target: T1, human-derived MDR1 (MDR1 coding P-gp) transporter protein; settings: from N Engl J Med 2020;383:1207-1217 supporting information; cited from earlier work

T1 sequence (P08183 whole entry): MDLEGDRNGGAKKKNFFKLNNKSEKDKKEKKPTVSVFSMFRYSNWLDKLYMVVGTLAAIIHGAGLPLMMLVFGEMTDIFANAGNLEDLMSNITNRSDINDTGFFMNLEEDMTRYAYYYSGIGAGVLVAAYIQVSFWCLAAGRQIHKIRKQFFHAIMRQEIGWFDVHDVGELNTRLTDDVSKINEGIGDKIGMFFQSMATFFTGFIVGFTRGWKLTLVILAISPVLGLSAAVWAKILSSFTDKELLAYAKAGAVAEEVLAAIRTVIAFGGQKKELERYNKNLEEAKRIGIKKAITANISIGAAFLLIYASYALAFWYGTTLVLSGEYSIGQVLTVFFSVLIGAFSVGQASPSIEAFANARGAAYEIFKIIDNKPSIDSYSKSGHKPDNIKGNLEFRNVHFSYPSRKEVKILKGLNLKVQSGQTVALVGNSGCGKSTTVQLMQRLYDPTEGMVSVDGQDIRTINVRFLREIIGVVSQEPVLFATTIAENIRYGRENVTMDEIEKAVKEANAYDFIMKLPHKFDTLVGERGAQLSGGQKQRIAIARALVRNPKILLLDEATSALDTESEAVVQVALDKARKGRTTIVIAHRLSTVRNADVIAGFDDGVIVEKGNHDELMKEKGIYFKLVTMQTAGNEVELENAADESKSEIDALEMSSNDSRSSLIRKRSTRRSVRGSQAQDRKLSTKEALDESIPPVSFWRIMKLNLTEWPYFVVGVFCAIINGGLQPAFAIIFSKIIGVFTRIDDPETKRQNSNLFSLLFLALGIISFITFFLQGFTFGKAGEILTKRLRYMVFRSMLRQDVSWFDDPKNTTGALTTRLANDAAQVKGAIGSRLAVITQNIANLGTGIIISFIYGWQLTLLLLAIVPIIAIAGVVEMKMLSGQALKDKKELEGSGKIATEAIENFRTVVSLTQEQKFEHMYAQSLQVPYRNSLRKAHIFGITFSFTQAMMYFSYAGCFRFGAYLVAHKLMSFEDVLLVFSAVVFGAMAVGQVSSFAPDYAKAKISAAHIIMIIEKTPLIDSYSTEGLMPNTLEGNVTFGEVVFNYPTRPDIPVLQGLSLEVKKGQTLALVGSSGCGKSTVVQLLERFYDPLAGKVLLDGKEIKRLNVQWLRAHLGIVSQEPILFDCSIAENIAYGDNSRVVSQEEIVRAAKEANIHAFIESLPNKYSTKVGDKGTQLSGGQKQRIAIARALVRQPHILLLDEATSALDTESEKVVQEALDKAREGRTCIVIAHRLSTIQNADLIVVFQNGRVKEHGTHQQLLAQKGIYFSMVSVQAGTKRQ
KRAS G12C, sequence (P01116 1-188 isoform P01116-2 G12C): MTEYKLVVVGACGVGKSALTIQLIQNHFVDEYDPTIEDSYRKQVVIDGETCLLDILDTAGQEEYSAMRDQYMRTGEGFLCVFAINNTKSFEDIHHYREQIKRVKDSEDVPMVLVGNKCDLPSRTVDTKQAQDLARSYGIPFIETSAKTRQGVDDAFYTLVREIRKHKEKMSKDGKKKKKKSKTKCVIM

Structure (SMILES)	anti-cell proliferation activity against KRAS G12C mutant type cells NCI-H358 (in words) (NCI-H358 cells; 72 h, CellTiter-Glo)	pIC50 (NCI-H358 cells; Homo sapiens, NCI-H358, 72 h, 72 h, CellTiter-Glo, test 3, read-out: IC50 value of cell proliferation inhibitory activity of NCI-H358)	cell proliferation inhibitory activity on NCI-H358 compared with the corresponding compound with axial chiral S configuration (in words) (NCI-H358 cells; NCI-H358)	cell proliferation inhibitory activity of R-configuration compound relative to the corresponding axial chiral S-configuration compound (NCI-H358 cells; NCI-H358, 3-12M versus 3-12P)	cell proliferation inhibitory activity of NCI-H358 compared with AMG510 (in words) (NCI-H358 cells; test 8)	pIC50 (NCI-H358 cells; test 8, method of test 3, read-out: IC50 of proliferation inhibitory activity of the compound on NCI-H358 cell line)	MTD at 5 days ([1]; both sexes, mouse, in vivo, oral gavage, 5 days, initially suggested, read-out: maximum tolerated dose)	water and food intake, activity and body weight during the administration period (in words) ([1]; oral gavage once a day for 5 days, 200 to 800 mg/kg)	inhibition effect on the growth of subcutaneously transplanted tumors derived from pancreatic cancer MIA paca-2 cells in nude mice (in words) ([2]; 10 mg/kg QD×15 days)	tumor inhibition rate compared with Compound 3-20 (in words) ([2]; 10 mg/kg QD×15 days)	Tumor inhibition rate (%) ([2]; MIA PaCa-2 xenograft, nude mice, 10 mg/kg oral gavage QD×15 days)	inhibitory activity on KRAS G12C enzyme compared with AMG510 (in words) (KRAS G12C)	inhibitory activity on tumor growth in vivo compared with ARS1620 (in words) [3]	substrate for P-gp (in words) [4]	pIC50 (NCI-H358 cells; Homo sapiens, NCI-H358, test 8, method of test 3, read-out: IC50 of proliferation inhibitory activity of the compound on NCI-H358 cell line)	chromosome aberration effect test result (in words) [5]	substrate for P-gp (in words) [6]
[2H]C([2H])=Cc1cccc(F)c1-c1nc2c(cc1Cl)c(N1CCN(C(=O)C=C)C[C@@H]1C)nc(=O)n2-c1c(C)ccnc1C(C)C [Compound 3-12M]	significant anti-cell proliferation activity	> 7.30	significantly better	more than 5 times	better than AMG510	8.10	> 800 mg/kg	no significant abnormality was showed	significant inhibition effect	higher than that of Compound 3-20	+++ (“+++” represents a tumor inhibition rate of >80%)	remarkable better	significantly better than that of ARS1620	not a substrate for P-gp			
C=CC(=O)N1CCN(c2nc(=O)n(-c3c(C)ccnc3C(C)C)c3nc(-c4c(O)cccc4F)c(F)cc23)[C@@H](C)C1 [AMG510]															7.39	positive result	is a substrate
